Among the data in patent publication US20240262822A1, “WDR5 INHIBITORS AND MODULATORS” (Vanderbilt University, priority 2021, published 2024) are GI50 and Ki values, retold here.

SMILES strings stand for the structures. Like-named read-outs stand apart in the source and are kept apart here. Some results are limits rather than exact numbers.

Assay [1] relates to MV4:11 human cancer cell lines. Description: Cellular viability / anti-proliferative activity, CellTiter-Glo, 5 day protocol. In kind it is cell-based. Conditions: Homo sapiens, MV4-11, 120 h, 5 day incubation. Here is the method: Anti-proliferative activity using MLL-harboring cell lines. MV-4-11 and K562 cells are grown in IMDM media supplemented with 10% FBS and 1% penicillin/streptomycin, Molm-13 cells are cultured in RPMI-1640 media supplemented with 10% FBS and 1% penicillin/streptomycin. Viability assays are performed by dispensing 200 cells at 7200 cells/mL into each well of an opaque 384-well plate and adding compounds at the indicated concentrations in a final volume of 32 μL and a final concentration of DMSO of 0.3% for all samples. A certain range of compound concentrations is made through a series of 2-fold dilutions starting 30 μM at the highest, total 22 dilutions. After a set incubation period, 5 day protocol, the viability of cells in each well is assessed using the CellTiter-Glo assay (Promega), read on a 96 Microplane Luminometer (Cytation 3, BioTek). Serial dilutions of each cell type are performed in all assays to generate standard curves and the final densities of cells are determined within the dynamic range of the instrument. GI50 values are calculated based on XLfit software (IDBS, Guildford, UK) with Sigmoidal Dose-Response Model. Each compound is tested in minimum of two replicates. Data are expressed as mean.
(ATP-based viability assays read luminescence as a measure of living cells.)

The next assay deals with T1, WDR5 (Homo sapiens, UniProt P61964).
T1 construct: WDR5-His Tag (A23, residues 24-334) is expressed and purified in our lab; made in house
Put plainly: Time Resolved-Fluorescence Energy Transfer (TR-FRET) competition assay, displacement of 10mer-Thr-FAM probe from His-tagged WDR5. The following applies: WDR5-His tag 2 nM, 10mer-Thr-FAM 150 nM, 60 minutes at room temperature. In kind it is binding. An excerpt:
Excess 10mer-Thr-FAM probe was utilized with His-tagged WDR5 in conjunction with a commercial anti-His antibody containing a Terbium label. The LanthaScreen™ Elite Tb-anti-HIS Antibody from ThermoFisher Scientific was used for this purpose. This Tb-anti-HIS has an excitation/emission of 340 nm and 490 nm, respectively. The 10mer-Thr-FAM probe when bound to WDR5 will undergo a FRET interaction with the Tb-anti-HIS and emit at 520 nm. […] WDR5-His Tag (A23, residues 24-334) is expressed and purified in our lab in sufficient quantities for screening. 10mer-Thr-FAM peptide is used at 150 nM. WDR5-His tag protein is used at 2 nM. A source plate is prepared using an Echo Liquid Handler, which distributes the compounds to the assay plate (white, flat-bottom; OptiPlate) in a 10-point, 5-fold dilution schemes with a top concentration of 5 μM, in a final volume of 20 μL. A final target (WDR5)/Tb-Ab concentration of 2 nM/1 nM is dispensed from appropriate stock solutions, respectively. The final DMSO concentration in each well of the assay plate is 1% or lower. The plate is covered, shielded from light, and incubated for 60 minutes at room temperature with rocking. 10mer-Thr-FAM and Anti-His terbium antibody fluorescence is then measured on a Biotek Cytation 3 at excitation wavelength of 340 nm, and emission wavelengths of 495 nm and 520 nm. Working buffer conditions contain 1× Phosphate Buffered Saline, 300 mM NaCl, 0.5 mM TCEP, 0.1% CHAPS, at pH 7.2. TR-FRET signal is plotted and IC50 and Ki values are calculated according to the formula of Wang Z. FEBS Lett (1996) 3, 245.
where […] is the concentration of the free inhibitor at 50% inhibition, [L]50 is the concentration of the free labeled ligand at 50% inhibition, [P]0 is the concentration of the free protein at 0% inhibition, Kd represents the dissociation constant of the FITC-MLL or 10mer-Thr-FAM probe for WDR5. Total fluorescence is also measured, to rule out compounds that are inherently fluorescent or able to act as quenchers in the assay. TR-FRET binding assay
On the technique in general: TR-FRET usually uses a lanthanide donor and a delayed reading to cut background.

The mark [2] stands for this setting: MV4:11 cells, read-out: GI50 for representative compounds on cellular proliferation of MV4:11 human cancer cell lines.
Setting [3] is: read-out: Ki for Exemplified Compounds for Inhibition of WDR5 by TR-FRET assay.
Setting [4] is: MV4;11 cells, read-out: GI50 for additional WDR5 inhibitor compounds on cellular proliferation of MV4;11 human cancer cell lines.
Where [5] appears, read: read-out: Ki for additional WDR5 inhibitor compounds for Inhibition of WDR5 by TR-FRET assay.

By Ki is commonly meant the equilibrium dissociation constant of an inhibitor or competing ligand from its target. Consider `COc1cc2cnnc(N3CCc4c(cc(Cn5ccnc5)cc4-c4cn(C)nc4C(F)(F)F)C3=O)c2cc1OC` [Example 31, 7-((1H-Imidazol-1-yl)methyl)-2-(6,7-dimethoxyphthalazin-1-yl)-5-(1-methyl-3-(trifluoromethyl)-1H-pyrazol-4-yl)-3,4-dihydroisoquinolin-1(2H)-one], for which the GI50 in assay [1] (setting [2]) is below 20 nM. Also, on WDR5 (setting [3]), the Ki was below 0.02 nM.
As for `COc1cc2nncc(N3CCc4c(cc(Cn5ccnc5)cc4-c4cn(C)nc4C(F)(F)F)C3=O)c2cc1OC` [Example 49, 7-((1H-Imidazol-1-yl)methyl)-2-(6,7-dimethoxycinnolin-4-yl)-5-(1-methyl-3-(trifluoromethyl)-1H-pyrazol-4-yl)-3,4-dihydroisoquinolin-1(2H)-one], in assay [1] (setting [2]), the GI50 is below 20 nM. In addition, on WDR5 (setting [3]), the Ki is below 0.02 nM.
Taken in the same sequence, the figures for `CNc1nc(N2CCc3c(cc(Cn4ccnc4)cc3-c3cn(C)nc3C(F)(F)F)C2=O)c2cc(OC)c(OC)cc2n1` [Example 57, 7-((1H-Imidazol-1-yl)methyl)-2-(6,7-dimethoxy-2-(methylamino)quinazolin-4-yl)-5-(1-methyl-3-(trifluoromethyl)-1H-pyrazol-4-yl)-3,4-dihydroisoquinolin-1(2H)-one] were 24 nM and 0.023 nM.
In the same order, the values of `CCc1cc(OC)c2nncc(N3CCc4c(cc(Cn5ccnc5)cc4-c4cn(C)nc4C(F)(F)F)C3=O)c2c1` [Example 13, 7-((1H-Imidazol-1-yl)methyl)-2-(6-ethyl-8-methoxycinnolin-4-yl)-5-(1-methyl-3-(trifluoromethyl)-1H-pyrazol-4-yl)-3,4-dihydroisoquinolin-1(2H)-one] are below 20 nM and below 0.02 nM.
For the molecule `COc1cc2c(N3CCc4c(cc(Cn5ccnc5)cc4-c4cn(C)nc4C(F)(F)F)C3=O)ncnc2cc1O` [Example 23, 7-((1H-Imidazol-1-yl)methyl)-2-(7-hydroxy-6-methoxyquinazolin-4-yl)-5-(1-methyl-3-(trifluoromethyl)-1H-pyrazol-4-yl)-3,4-dihydroisoquinolin-1(2H)-one], the GI50 in assay [1] (setting [2]) was 1280 nM. At WDR5 (setting [3]), the Ki was determined as 0.025 nM.
For `CCc1cc(C2CCOCC2)c2nc(C)cc(N3CCc4c(cc(Cn5ccnc5)cc4-c4cn(C)nc4C(F)(F)F)C3=O)c2c1` [Compound B-165], in assay [1] (setting [4]), the GI50 stood at 129 nM. In addition, the Ki at WDR5 (setting [5]) was 0.042 nM.
As to `CCc1cnc2c(c1)[C@@H](N1CCc3c(cc(Cn4ccnc4)cc3-c3cn(C)nc3C(F)(F)F)C1=O)CCO2` [Example 11, (S)-7-((1H-Imidazol-1-yl)methyl)-2-(6-ethyl-3,4-dihydro-2H-pyrano[2,3-b]pyridin-4-yl)-5-(1-methyl-3-(trifluoromethyl)-1H-pyrazol-4-yl)-3,4-dihydroisoquinolin-1(2H)-one], the GI50 in assay [1] (setting [2]) is below 20 nM. In addition, at WDR5 (setting [3]), the Ki was below 0.02 nM.
In the same order, the values of `CCc1cc2c(N3CCc4c(cc(Cn5ccnc5)cc4-c4cn(C)nc4C(F)(F)F)C3=O)ccnc2c(-n2cccc2)n1` [Example 35, 7-((1H-Imidazol-1-yl)methyl)-2-(6-ethyl-8-(1H-pyrrol-1-yl)-1,7-naphthyridin-4-yl)-5-(1-methyl-3-(trifluoromethyl)-1H-pyrazol-4-yl)-3,4-dihydroisoquinolin-1(2H)-one] are 47 nM and below 0.02 nM.
Taken in the same sequence, the figures for `CCc1cc(OC)c2ncnc(N3CCc4c(cc(Cn5ccnc5)cc4-c4cn(C)nc4C(F)(F)F)C3=O)c2c1` [Example 27, 7-((1H-imidazol-1-yl)methyl)-2-(6-ethyl-8-methoxyquinazolin-4-yl)-5-(1-methyl-3-(trifluoromethyl)-1H-pyrazol-4-yl)-3,4-dihydroisoquinolin-1(2H)-one] were below 20 nM and below 0.02 nM.
In the same order, the values of `COc1cc2c(N3CCc4c(cc(Cn5ccnc5)cc4-c4cn(C)nc4C(F)(F)F)C3=O)nc(C)nc2cc1F` [Example 53, 7-((1H-Imidazol-1-yl)methyl)-2-(7-fluoro-6-methoxy-2-methylquinazolin-4-yl)-5-(1-methyl-3-(trifluoromethyl)-1H-pyrazol-4-yl)-3,4-dihydroisoquinolin-1(2H)-one] are below 20 nM and below 0.02 nM.
Consider `COc1cc2c(N3CCc4c(cc(Cn5ccnc5)cc4-c4cn(C)nc4C(F)(F)F)C3=O)ccnc2c(OC)n1` [Example 12, 7-((1H-Imidazol-1-yl)methyl)-2-(6,8-dimethoxy-1,7-naphthyridin-4-yl)-5-(1-methyl-3-(trifluoromethyl)-1H-pyrazol-4-yl)-3,4-dihydroisoquinolin-1(2H)-one], for which, in assay [1] (setting [2]), the GI50 came to 42 nM. For the same molecule, the Ki at WDR5 (setting [3]) was below 0.02 nM.
In the same order, the values of `CNc1cc2nc(C)nc(N3CCc4c(cc(Cn5ccnc5)cc4-c4cn(C)nc4C(F)(F)F)C3=O)c2cc1OC` [Example 55, 7-((1H-Imidazol-1-yl)methyl)-2-(6-methoxy-2-methyl-7-(methylamino)quinazolin-4-yl)-5-(1-methyl-3-(trifluoromethyl)-1H-pyrazol-4-yl)-3,4-dihydroisoquinolin-1(2H)-one] are 47 nM and below 0.02 nM.
Take `COc1cc2c(N3CCc4c(cc(Cn5ccnc5)cc4-c4cn(C)nc4C(F)(F)F)C3=O)ncnc2cc1OCc1ccnn1C` [Example 26, 7-((1H-Imidazol-1-yl)methyl)-2-(6-methoxy-7-((1-methyl-1H-pyrazol-5-yl)methoxy)quinazolin-4-yl)-5-(1-methyl-3-(trifluoromethyl)-1H-pyrazol-4-yl)-3,4-dihydroisoquinolin-1(2H)-one]: the GI50 in assay [1] (setting [2]) was 76 nM. On WDR5 (setting [3]), the Ki was below 0.02 nM.
In the same order, the values of `CCc1cc2c(N3CCc4c(cc(Cn5ccnc5)cc4-c4cn(C)nc4C(F)(F)F)C3=O)cc(C)nc2c(OC)n1` [Example 48, 7-((1H-Imidazol-1-yl)methyl)-2-(6-ethyl-8-methoxy-2-methyl-1,7-naphthyridin-4-yl)-5-(1-methyl-3-(trifluoromethyl)-1H-pyrazol-4-yl)-3,4-dihydroisoquinolin-1(2H)-one] are below 20 nM and below 0.02 nM.
Taken in the same sequence, the figures for `CCc1cc2c(N3CCc4c(cc(Cn5ccnc5)cc4-c4cn(C)nc4C(F)(F)F)C3=O)ccnc2c(-c2ccncc2)n1` [Example 45, 7-((1H-Imidazol-1-yl)methyl)-2-(6-ethyl-8-(pyridin-4-yl)-1,7-naphthyridin-4-yl)-5-(1-methyl-3-(trifluoromethyl)-1H-pyrazol-4-yl)-3,4-dihydroisoquinolin-1(2H)-one] were 21 nM and below 0.02 nM.
As to `COc1cc(N(C)C)c2nccc(N3CCc4c(cc(Cn5ccnc5)cc4-c4cn(C)nc4C(F)(F)F)C3=O)c2c1` [Compound B-35], the GI50 in assay [1] (setting [4]) was 76 nM. The Ki on WDR5 (setting [5]) is below 0.02 nM.
Turning to `COCCOc1cc2ncnc(N3CCc4c(cc(Cn5ccnc5)cc4-c4cn(C)nc4C(F)(F)F)C3=O)c2cc1OC` [Example 25, 7-((1H-Imidazol-1-yl)methyl)-2-(6-methoxy-7-(2-methoxyethoxy)quinazolin-4-yl)-5-(1-methyl-3-(trifluoromethyl)-1H-pyrazol-4-yl)-3,4-dihydroisoquinolin-1(2H)-one], the GI50 in assay [1] (setting [2]) was determined as 310 nM. Further, the Ki at WDR5 (setting [3]) turned out to be 0.036 nM.
Regarding `CCc1cc(NC(=O)CC2CN(C(=O)C3CCOCC3)C2)c2nccc(N3CCc4c(cc(Cn5ccnc5)cc4-c4cn(C)nc4C(F)(F)F)C3=O)c2c1` [Compound B-233], the GI50 in assay [1] (setting [4]) was 26 nM. In addition, the Ki at WDR5 (setting [5]) is below 0.02 nM.
